In patent US20240148821A1, “PHARMACEUTICAL USE OF CYCLIC PEPTIDE COMPOUND” (CHUGAI SEIYAKU KABUSHIKI KAISHA, priority 2021, published 2024):
Numbered stars: 1 amine (or outer) side, 2 acyl side, 3 side chain; on linkers, the order of the positions; unused ones are H or OH. Bridge positions count the residues as written; N and C are the ends. Square brackets hold non-standard residues; d marks the D form. Peptide text beside a SMILES is read from it. * marks the point of attachment. hPhe(3-Cl-4-CF3) = N[C@@H](CCc1ccc(C(F)(F)F)c(Cl)c1)C(=O)O; hPhe(3-F,4-CF3) = N[C@@H](CCc1ccc(C(F)(F)F)c(F)c1)C(=O)O; NMePhe(4-CN) = CN[C@@H](Cc1ccc(C#N)cc1)C(=O)O; NMePhe(4-Cl) = CN[C@@H](Cc1ccc(Cl)cc1)C(=O)O; NMePhe(2-CN) = CN[C@@H](Cc1ccccc1C#N)C(=O)O; NMePhe(4-Me) = CN[C@@H](Cc1ccc(C)cc1)C(=O)O; NMedβ3hAla = C[C@H](CC(=O)[*:2])N(C)[*:1]; Phe(3-I) = N[C@@H](Cc1cccc(I)c1)C(=O)O; Pro(4,4-F2) = O=C(O)[C@@H]1CC(F)(F)CN1; NMeCha = CN[C@@H](CC1CCCCC1)C(=O)O; NMeChg = CN[C@H](C(=O)O)C1CCCCC1; NMeI = CC[C@H](C)[C@H](NC)C(=O)O; NMeD = CN[C@@H](CC(=O)O)C(=O)O; NMeL = CN[C@@H](CC(C)C)C(=O)O; Chg = N[C@H](C(=O)O)C1CCCCC1; NMeV = CN[C@H](C(=O)O)C(C)C; d(β3hA) = C[C@@H](N)CC(=O)O; NMeS = CN[C@@H](CO)C(=O)O; NMeA = CN[C@@H](C)C(=O)O; NMeAib = CNC(C)(C)C(=O)O; Nle = CCCC[C@H](N)C(=O)O; Piperidide = C1CCN(*)CC1; Pyrrolidide = C1CCN(*)C1; Ac5c = NC1(C(=O)O)CCCC1; Aze = O=C(O)[C@@H]1CCN1; NcPrGly = O=C(O)CNC1CC1; Ac4c = NC1(C(=O)O)CCC1; CH2CMe2OH = CC(C)(O)C*; Aib = CC(C)(N)C(=O)O; Isopentyl = CC(C)CC*; NPrGly = CCCNCC(=O)O; Sar = CNCC(=O)O

tested on: Human pancreatic cancer cell line AsPC-1 (G12D mutation Kras); test: AsPC-1 cell growth inhibition (AsPC-1 CGI); format: cell-based; conditions: read-out: AsPC-1 cell growth inhibition, 50% growth inhibitory concentration (IC50 value); 96 hours, CellTiter-Glo, values classified in ranges
Description: Test compounds were serially dilated with dimethyl sulfoxide, and 200 nL was then dispensed to a U-bottom 96-well plate using Labcyte Echo. […] The cell suspension was dispensed to a. plate containing a test compound at 100 μL per well and incubated at 37° C. in a 5% carbon dioxide gas incubator. 96 hours later, 80 μL of CellTiter-Glo (Promega) was added to each well and fluorescence was measured.

`CC[C@H](C)[C@@H]1NC(=O)[C@H](CC(C)C)N(C)C(=O)C[C@@H](C(=O)N2CCCCC2)N(C)C(=O)[C@H](CC(C)C)N(C)C(=O)C(C)(C)NC(=O)[C@H](COCC(C)(C)O)N(C)C(=O)[C@H](CCc2ccc(C(F)(F)F)c(F)c2)NC(=O)CN(C)C(=O)[C@H](COCCC(C)C)N(C)C(=O)CN(C)C(=O)CN(C)C1=O` [Compound 1532] ([NMeL]I[Sar][Sar][NMeS](Isopentyl)[Sar][hPhe(3-F,4-CF3)][NMeS](CH2CMe2OH)[Aib][NMeL][NMeD]-Piperidide; lactam N-11) and `CC[C@H](C)[C@@H]1NC(=O)[C@H](CC(C)C)N(C)C(=O)C[C@@H](C)NC(=O)[C@H](CC(C)C)N(C)C(=O)C(C)(C)NC(=O)[C@H](COCC(C)(C)O)N(C)C(=O)[C@H](CCc2ccc(C(F)(F)F)c(Cl)c2)NC(=O)CN(C)C(=O)[C@H](COCCC(C)C)N(C)C(=O)CN(C)C(=O)CN(C)C1=O` [Compound 1546] (cyclo([Aib][NMeL][d(β3hA)][NMeL]I[Sar][Sar][NMeS](Isopentyl)[Sar][hPhe(3-Cl-4-CF3)][NMeS](CH2CMe2OH))) cannot be ordered by IC50: over 500 nM for the first, over 500 nM for the second.

`CCCC[C@@H]1NC(=O)[C@H](Cc2cccc(I)c2)NC(=O)CN(C)C(=O)[C@H](Cc2ccc(C)cc2)N(C)C(=O)CN(C)C(=O)CN(C)C(=O)[C@H]([C@@H](C)CC)NC(=O)[C@H](CC(C)C)N(C)C(=O)C[C@@H](C(=O)N2CCCCC2)N(C)C(=O)[C@H](CC(C)C)NC(=O)[C@H](C)N(C)C1=O` [Compound 232] ([NMeL]I[Sar][Sar][NMePhe(4-Me)][Sar][Phe(3-I)][Nle][NMeA]L[NMeD]-Piperidide; lactam N-11) and `CCCC[C@@H]1NC(=O)C(C)(C)N(C)C(=O)[C@H](CCCC)NC(=O)[C@H](Cc2cccc(I)c2)NC(=O)CN(C)C(=O)[C@H](Cc2ccc(Cl)cc2)N(C)C(=O)CN(C)C(=O)CN(C)C(=O)[C@H]([C@@H](C)CC)NC(=O)[C@H](CC(C)C)N(C)C(=O)C[C@@H](C(=O)N2CCCCC2)N(C)C1=O` [Compound 765] ([NMeL]I[Sar][Sar][NMePhe(4-Cl)][Sar][Phe(3-I)][Nle][NMeAib][Nle][NMeD]-Piperidide; lactam N-11) cannot be ordered by IC50: over 500 nM for the first, over 500 nM for the second.

`CC[C@H](C)[C@@H]1NC(=O)[C@H](CC(C)C)N(C)C(=O)C[C@@H](C(=O)N(C)C)N(C)C(=O)[C@H]([C@@H](C)CC)N(C)C(=O)[C@H](C(C)C)NC(=O)[C@@H](C)NC(=O)[C@H](CCc2ccc(C(F)(F)F)c(Cl)c2)NC(=O)CN(C)C(=O)[C@H](Cc2ccc(C)cc2)N(C)C(=O)[C@@H]2CCN2C(=O)[C@H](C)N(C)C1=O` [Compound 915] ([NMeL]I[NMeA][Aze][NMePhe(4-Me)][Sar][hPhe(3-Cl-4-CF3)][dA]V[NMeI][NMeD]-NMe2; lactam N-11) and `CC[C@H](C)[C@@H]1NC(=O)[C@H](CC(C)C)N(C)C(=O)C[C@@H](C)N(C)C(=O)[C@H](CC(C)C)NC(=O)C(C)(C)N(C)C(=O)[C@H](CC(C)C)NC(=O)[C@H](CCc2ccc(C(F)(F)F)c(Cl)c2)NC(=O)CN(C)C(=O)[C@H](Cc2ccc(C)cc2)N(C)C(=O)[C@@H]2CCN2C(=O)CN(C)C1=O` [Compound 1386] (cyclo([Aze][NMePhe(4-Me)][Sar][hPhe(3-Cl-4-CF3)]L[NMeAib]L[NMedβ3hAla][NMeL]I[Sar])) cannot be ordered by IC50: over 500 nM for the first, over 500 nM for the second.

Compared with `CC[C@H](C)[C@@H]1NC(=O)[C@H](CC(C)C)N(C)C(=O)C[C@@H](C(=O)N2CCCCC2)N(C)C(=O)[C@H](C2CCCCC2)NC(=O)C2(CCCC2)NC(=O)[C@@H]2CCCN2C(=O)[C@H](CCc2ccc(C(F)(F)F)c(Cl)c2)NC(=O)CN(C)C(=O)[C@H](CC2CCCCC2)N(C)C(=O)CN(C)C(=O)CN(C)C1=O` [Compound 1354] ([NMeL]I[Sar][Sar][NMeCha][Sar][hPhe(3-Cl-4-CF3)]P[Ac5c][Chg][NMeD]-Piperidide; lactam N-11), `CC[C@H](C)[C@@H]1NC(=O)[C@H](CC(C)C)N(C)C(=O)C[C@@H](C(=O)N2CCCC2)N(C)C(=O)[C@H](C2CCCCC2)N(C)C(=O)C2(CCC2)NC(=O)[C@@H]2CC(F)(F)CN2C(=O)[C@H](CCc2ccc(C(F)(F)F)c(Cl)c2)NC(=O)CN(C)C(=O)[C@H](CC2CCCCC2)N(C)C(=O)CN(C)C(=O)CN(C)C1=O` [Compound 1163] ([NMeL]I[Sar][Sar][NMeCha][Sar][hPhe(3-Cl-4-CF3)][Pro(4,4-F2)][Ac4c][NMeChg][NMeD]-Pyrrolidide; lactam N-11) is lower in IC50: over 500 nM for the first, at most 20 nM for the second.

`CC[C@H](C)[C@@H]1NC(=O)[C@H](CC(C)C)N(C)C(=O)C[C@@H](C)N(C)C(=O)[C@H](C(C)C)N(C)C(=O)C2(CCCC2)NC(=O)[C@@H]2CCCN2C(=O)[C@H](CCc2ccc(C(F)(F)F)c(Cl)c2)NC(=O)CN(C)C(=O)[C@H](Cc2ccccc2C#N)N(C)C(=O)CN(C)C(=O)CN(C)C1=O` [Compound 357] (cyclo([Ac5c][NMeV][NMedβ3hAla][NMeL]I[Sar][Sar][NMePhe(2-CN)][Sar][hPhe(3-Cl-4-CF3)]P)) and `CC[C@H](C)[C@@H]1NC(=O)[C@H](CC(C)C)N(C)C(=O)C[C@@H](C(=O)N2CCCCC2)N(C)C(=O)[C@H](C(C)C)N(C)C(=O)C2(CCCC2)NC(=O)[C@@H]2CCCN2C(=O)[C@H](CCc2ccc(C(F)(F)F)c(Cl)c2)NC(=O)CN(C)C(=O)[C@H](Cc2ccc(C#N)cc2)N(C)C(=O)CN(C)C(=O)CN(C)C1=O` [Compound 867] ([NMeL]I[Sar][Sar][NMePhe(4-CN)][Sar][hPhe(3-Cl-4-CF3)]P[Ac5c][NMeV][NMeD]-Piperidide; lactam N-11) cannot be ordered by IC50: over 500 nM for the first, over 500 nM for the second.

`CC[C@H](C)[C@@H]1NC(=O)[C@H](CC(C)C)N(C)C(=O)C[C@@H](C(=O)N2CCCCC2)N(C)C(=O)[C@H](C(C)C)N(C)C(=O)C2(CCCC2)NC(=O)[C@@H](C)NC(=O)[C@H](CCc2ccc(C(F)(F)F)c(Cl)c2)NC(=O)CN(C)C(=O)[C@H](CC2CCCCC2)N(C)C(=O)[C@@H]2CCN2C(=O)[C@H](C)N(C)C1=O` [Compound 1314] ([NMeL]I[NMeA][Aze][NMeCha][Sar][hPhe(3-Cl-4-CF3)][dA][Ac5c][NMeV][NMeD]-Piperidide; lactam N-11) and `CCCN1CC(=O)N(C)CC(=O)N(C)[C@@H](CC2CCCCC2)C(=O)N(C)CC(=O)N[C@@H](CCc2ccc(C(F)(F)F)c(Cl)c2)C(=O)N2CCC[C@H]2C(=O)NC2(CCCC2)C(=O)N(C)[C@@H](C(C)C)C(=O)N[C@H](C)CC(=O)N(C)[C@@H](CC(C)C)C(=O)N[C@@H]([C@@H](C)CC)C1=O` [Compound 116] (cyclo([Ac5c][NMeV][d(β3hA)][NMeL]I[NPrGly][Sar][NMeCha][Sar][hPhe(3-Cl-4-CF3)]P)) cannot be ordered by IC50: over 500 nM for the first, over 500 nM for the second.

`CC[C@H](C)[C@@H]1NC(=O)[C@H](CC(C)C)N(C)C(=O)C[C@@H](C)NC(=O)[C@H](C(C)C)N(C)C(=O)C2(CCCC2)NC(=O)[C@@H]2CCCN2C(=O)[C@H](CCc2ccc(C(F)(F)F)c(Cl)c2)NC(=O)CN(C2CC2)C(=O)[C@H](CC2CCCCC2)N(C)C(=O)CN(C)C(=O)CN(C)C1=O` [Compound 204] (cyclo([Ac5c][NMeV][d(β3hA)][NMeL]I[Sar][Sar][NMeCha][NcPrGly][hPhe(3-Cl-4-CF3)]P)) and `CC[C@H](C)[C@@H]1NC(=O)[C@H](C)N(C)C(=O)C[C@@H](C)NC(=O)[C@H](C(C)C)N(C)C(=O)C2(CCCC2)NC(=O)[C@@H]2CCCN2C(=O)[C@H](CCc2ccc(C(F)(F)F)c(Cl)c2)NC(=O)[C@H]2CCCN2C(=O)[C@H](CC2CCCCC2)N(C)C(=O)[C@@H]2CCCN2C(=O)CN(C)C1=O` [Compound 666] (cyclo([Ac5c][NMeV][d(β3hA)][NMeA]I[Sar]P[NMeCha][dP][hPhe(3-Cl-4-CF3)]P)) cannot be ordered by IC50: over 500 nM for the first, over 500 nM for the second.
